From patent US20150209379A1, “TREATMENT OF PROSTATE CANCER AND HEMATOLOGIC NEOPLASMS” (THOMAS JEFFERSON UNIVERSITY, priority 2012, published 2015)

Legend:
Type in all cases: cell-based, human
Stat5a/b [1] = experiment: Constitutive Stat5a/b phosphorylation in imatinib-resistant KCL22R cells (Western blot)
Procedure: Exponentially growing KCL22S and KCL22R cells were treated with Compound 1 or Compound 2 at various concentrations for 3 h and 16 h (Compound 1) or 3 h, 6 h or 16 h (Compound 2) after which the cells were harvested. Cell pellets were solubilized in lysis buffer [10 mM Tris-HCl (pH 7.6), 5 mM EDTA, 50 mM sodium chloride, 30 mM sodium pyrophosphate, 50 mM sodium fluoride, 1 mM sodium orthovanadate, 1% Triton X-100, 1 mM phenylmethylsulfonyl fluoride, 5 μg/ml aprotinin, 1 μg/ml pepstatin A, and 2 μg/ml leupeptin], rotated end-over-end at 4° C. for 60 min, and insoluble material was pelleted at 12,000×g for 30 min at 4° C. The protein concentrations of clarified cell lysates were determined by simplified Bradford method (Bio-Rad Laboratories, Hercules, Calif.). Western blotting of the lysates was carried out using, as primary antibodies, the following antibodies at the following concentrations: anti-phosphotyrosine-Stat5a/b (Y694/Y699) mAb (1 μg/ml, Advantex BioReagents, Conroe, Tex.), anti-Stat5ab mAb (1:250; BD Biosciences, San Jose, Calif.) or anti-actin pAb (Sigma). Anti-actin was included as a control.
(§1) Exponentially growing K562 cells were treated with NBPP for 3 h or 6 h after which the cells were harvested. Exponentially growing K562 cells or imatinib-resistant K562 cells were treated with NBPP for 6 h or 16 h after which the cells were harvested. Cell pellets were solubilized in lysis buffer [10 mM Tris-HCl (pH 7.6), 5 mM EDTA, 50 mM sodium chloride, 30 mM sodium pyrophosphate, 50 mM sodium fluoride, 1 mM sodium orthovanadate, 1% Triton X-100, 1 mM phenylmethylsulfonyl fluoride, 5 μg/ml aprotinin, 1 μg/ml pepstatin A, and 2 μg/ml leupeptin], rotated end-over-end at 4° C. for 60 min, and insoluble material was pelleted at 12,000×g for 30 min at 4° C. The protein concentrations of clarified cell lysates were determined by simplified Bradford method (Bio-Rad Laboratories, Hercules, Calif.). […]

Stat5a/b [2] = experiment: Constitutive Stat5a/b phosphorylation in K562 cells (Western blot)
Procedure: Exponentially growing K562 cells were treated with 5 μM Compound 1, Compound 2 or control for 3 h after which the cells were harvested. Cell pellets were solubilized in lysis buffer [10 mM Tris-HCl (pH 7.6), 5 mM EDTA, 50 mM sodium chloride, 30 mM sodium pyrophosphate, 50 mM sodium fluoride, 1 mM sodium orthovanadate, 1% Triton X-100, 1 mM phenylmethylsulfonyl fluoride, 5 μg/mlaprotinin, 1 μg/ml pepstatin A, and 2 μg/ml leupeptin], rotated end-over-end at 4° C. for 60 min, and insoluble material was pelleted at 12,000×g for 30 min at 4° C. The protein concentrations of clarified cell lysates were determined by simplified Bradford method (Bio-Rad Laboratories, Hercules, Calif.). Western blotting of the lysates was carried out using, as primary antibodies, the following antibodies at the following concentrations: anti-phosphotyrosine-Stat5a/b (Y694/Y699) mAb (1 μg/ml, Advantex BioReagents, Conroe, Tex.) or anti-Stat5ab mAb (1:250; BD Biosciences, San Jose, Calif.), anti-human Abl mAb (Calbiochem).
as §1

[3] = tested on: CWR22Rv1 prostate cancer cells; experiment: Cell viability, MTS assay, CWR22Rv1 prostate cancer cells; settings: CWR22Rv1, 72 h, 3.1, 6.3, 12.5, 25 and 50 μM, vs control compound C5
Procedure: (§2) Exponentially growing CWR22Rvl prostate cancer cells were treated with Compound 1, Compound 2 or the control compound C5 for 72 h at 3.1, 6.3. 12.5, 25 and 50 μM concentrations. The cell viability was assessed by MTS (3-(4,5-dimethylthiazolyl-2)-2,5-diphenyl-tetrazolium bromide) metabolic activity assay (CellTiter 96® AQueous Assay kit).
as §2, with “CWR22Rv1” for “CWR22Rvl”, “cancer cells, K562 leukemia cells and imatinib-sensitive KCL22S and imatinib-resistant KCL22R chronic myeloid leukemia” for “cancer”, “NBPP” for “Compound 1, Compound 2”
as §2, with “N6BA” for “Compound 1, Compound 2”

[4] = KCL22R, various concentrations, 3 h and 16 h (Compound 1) or 3 h, 6 h or 16 h (Compound 2)

Row | SMILES | effect on phosphorylation of Stat5 (Stat5a/b [1]; [4]) | effect on phosphorylation of Stat5 (Stat5a/b [2]; K562, 5 μM, 3 h) | number of viable cells [3] | effect on phosphorylation of Stat5 (Stat5a/b [1]; KCL22R imatinib-resistant, 6 h or 16 h) | effect on phosphorylation of Stat5 (Stat5a/b [2]; K562, indicated concentrations, 3 or 6 hours)
1 | OC[C@H]1O[C@@H](n2cnc3c(N4CCc5ccccc5C4)ncnc32)[C@H](O)[C@@H]1O [Compound 1, (2R,3R,4S,5R)-2-(6-(3,4-Dihydroisoquinolin-2(1H)-yl)-9H-purin-9-yl)-5-(hydroxymethyl)tetrahydrofuran-3,4-diol] | block phosphorylation of Stat5 | block phosphorylation of Stat5 | decreased the number of viable prostate cancer cells compared to the control compound |  | 
2 | OC[C@H]1O[C@@H](n2cnc3c(NNc4ccccc4)ncnc32)[C@H](O)[C@@H]1O [Compound 2, (2R,3S,4R,5R)-2-(hydroxymethyl)-5-(6-(2-phenylhydrazinyl)-9H-purin-9-yl)tetrahydrofuran-3,4-diol] | block phosphorylation of Stat5 | block phosphorylation of Stat5 | decreased the number of viable prostate cancer cells compared to the control compound |  | 
3 | OC[C@H]1O[C@@H](n2cnc3c(NCc4ccccc4)ncnc32)[C@H](O)[C@@H]1O [Compound N6BA, N^6-benzyladenosine] |  |  | decreased the number of viable prostate cancer cells |  | 
4 | OC[C@H]1O[C@@H](n2ccc3c(NCc4ccccc4)ncnc32)[C@H](O)[C@@H]1O [NBPP, N-(phenylmethyl)-7-β-D-ribofuranosyl-7H-pyrrolo[2,3-d]pyrimidin-4-amine] |  |  | decreased the number of viable prostate cancer cells | inhibits phosphorylation of Stat5 | inhibited phosphorylation of Stat5
